# Data from US8697739B2, “Bicyclic acetyl-CoA carboxylase inhibitors and uses thereof” (Novartis AG, priority 2010, dated 2014).
# Target: T1, human acetyl-CoA carboxylase 2 (ACC2) (Homo sapiens, UniProt O00763)
# T1 construct: The cDNA encoding amino acids 144 to 2458 of human acetyl-CoA carboxylase 2; made in house; host or cells: Sf9 insect cells (baculovirus, pFastBac1)
# Test: Acetyl-CoA carboxylase enzyme assay (malonyl-CoA formation by LC/MS/MS)
# Format: biochemical
# Settings: recombinant human ACC2 (aa 144-2458); read-out: IC50 ACC2
# How it was run: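 Malonyl-CoA formation was read by LC/MS/MS MRM against a [13C3]-malonyl-CoA internal standard, after acetic acid quench. The enzyme was baculovirus/Sf9-expressed human ACC2 residues 144–2458, given 15 minutes room-temperature compound preincubation in HEPES pH 7.5 buffer with MgCl2, citrate and DTT. Substrate solution held 50 μM acetyl-CoA, 120 μM ATP and 2 mM KHCO3.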
# T1 sequence (O00763 144-2458): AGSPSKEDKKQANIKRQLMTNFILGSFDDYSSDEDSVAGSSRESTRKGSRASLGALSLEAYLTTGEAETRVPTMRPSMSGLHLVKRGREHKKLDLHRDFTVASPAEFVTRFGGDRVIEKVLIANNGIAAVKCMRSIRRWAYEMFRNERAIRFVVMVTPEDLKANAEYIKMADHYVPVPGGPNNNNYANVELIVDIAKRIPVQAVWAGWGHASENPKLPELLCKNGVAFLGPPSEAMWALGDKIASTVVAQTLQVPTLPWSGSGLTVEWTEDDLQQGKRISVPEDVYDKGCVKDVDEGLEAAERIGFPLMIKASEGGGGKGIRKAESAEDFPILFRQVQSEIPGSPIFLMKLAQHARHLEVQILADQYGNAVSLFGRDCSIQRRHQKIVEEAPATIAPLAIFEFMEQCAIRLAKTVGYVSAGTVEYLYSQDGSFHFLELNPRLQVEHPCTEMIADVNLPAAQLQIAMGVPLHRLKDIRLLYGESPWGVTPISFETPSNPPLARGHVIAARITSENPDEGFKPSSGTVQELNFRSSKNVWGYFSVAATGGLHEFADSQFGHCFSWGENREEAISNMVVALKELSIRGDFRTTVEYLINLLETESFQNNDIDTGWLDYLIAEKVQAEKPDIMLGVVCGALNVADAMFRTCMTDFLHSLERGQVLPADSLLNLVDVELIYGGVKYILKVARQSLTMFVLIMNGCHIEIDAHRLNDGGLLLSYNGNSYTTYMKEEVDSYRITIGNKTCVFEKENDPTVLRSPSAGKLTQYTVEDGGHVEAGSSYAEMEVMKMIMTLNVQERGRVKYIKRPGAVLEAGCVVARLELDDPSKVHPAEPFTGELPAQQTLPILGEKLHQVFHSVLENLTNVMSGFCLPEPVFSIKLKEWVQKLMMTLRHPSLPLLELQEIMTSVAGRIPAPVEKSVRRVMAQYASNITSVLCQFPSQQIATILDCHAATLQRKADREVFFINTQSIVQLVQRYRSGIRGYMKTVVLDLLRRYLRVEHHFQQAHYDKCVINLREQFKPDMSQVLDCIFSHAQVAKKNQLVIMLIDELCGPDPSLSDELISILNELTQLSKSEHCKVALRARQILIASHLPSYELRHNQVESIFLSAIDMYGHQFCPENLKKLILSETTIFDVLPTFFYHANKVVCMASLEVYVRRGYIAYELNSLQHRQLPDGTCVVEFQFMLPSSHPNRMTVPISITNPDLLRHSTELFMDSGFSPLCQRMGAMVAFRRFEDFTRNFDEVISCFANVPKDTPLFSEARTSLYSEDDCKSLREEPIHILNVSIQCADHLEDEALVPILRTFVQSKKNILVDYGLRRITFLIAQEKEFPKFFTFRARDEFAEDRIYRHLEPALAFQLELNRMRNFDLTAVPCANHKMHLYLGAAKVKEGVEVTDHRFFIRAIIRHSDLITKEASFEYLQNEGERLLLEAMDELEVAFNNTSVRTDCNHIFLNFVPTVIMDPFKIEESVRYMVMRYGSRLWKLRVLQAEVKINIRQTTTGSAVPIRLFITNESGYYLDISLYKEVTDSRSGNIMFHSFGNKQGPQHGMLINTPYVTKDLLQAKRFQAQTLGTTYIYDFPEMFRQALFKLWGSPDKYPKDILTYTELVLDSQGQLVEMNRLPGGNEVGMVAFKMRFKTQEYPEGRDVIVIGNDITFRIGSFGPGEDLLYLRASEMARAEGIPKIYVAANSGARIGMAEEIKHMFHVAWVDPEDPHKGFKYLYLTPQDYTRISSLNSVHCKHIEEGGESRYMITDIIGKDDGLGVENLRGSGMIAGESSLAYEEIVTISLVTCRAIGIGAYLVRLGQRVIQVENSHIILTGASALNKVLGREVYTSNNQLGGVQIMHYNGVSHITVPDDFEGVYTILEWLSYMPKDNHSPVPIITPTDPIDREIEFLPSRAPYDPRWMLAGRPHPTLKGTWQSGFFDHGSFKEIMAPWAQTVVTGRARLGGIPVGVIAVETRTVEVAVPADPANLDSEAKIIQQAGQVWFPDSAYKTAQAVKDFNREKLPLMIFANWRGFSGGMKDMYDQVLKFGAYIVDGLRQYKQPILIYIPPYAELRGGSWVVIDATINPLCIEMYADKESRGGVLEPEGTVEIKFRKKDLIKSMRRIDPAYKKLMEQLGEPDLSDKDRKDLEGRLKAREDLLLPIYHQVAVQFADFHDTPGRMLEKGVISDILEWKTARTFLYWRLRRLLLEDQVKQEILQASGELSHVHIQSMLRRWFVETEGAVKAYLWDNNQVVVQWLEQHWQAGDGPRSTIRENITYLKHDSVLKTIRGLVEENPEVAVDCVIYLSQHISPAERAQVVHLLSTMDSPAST
row,Structure (SMILES),IC50
1,"COCCOc1ccc(-c2cc3ccc(S(=O)(=O)N[C@H]4CC[C@H](C(=O)N5CCOC[C@@H]5C)CC4)cc3n2C)cc1 [Example 448, 2-(4-(2-methoxyethoxy)phenyl)-1-methyl-N-((1S,4r)-4-((S)-3-methylmorpholine-4-carbonyl)cyclohexyl)-1H-indole-6-sulfonamide]",65 nM
2,"COCCOc1ccc(-c2cc3ccc(S(=O)(=O)N[C@H]4CC[C@H](C(=O)N[C@H](CO)C5CC5)CC4)cc3n2C)cc1 [Example 449, (1r,4S)-N-((S)-1-cyclopropyl-2-hydroxyethyl)-4-(2-(4-(2-methoxyethoxy)phenyl)-1-methyl-1H-indole-6-sulfonamido)cyclohexanecarboxamide]",75 nM
3,"COCCOc1ccc(-c2cc3ccc(S(=O)(=O)N[C@H]4CC[C@H](C(=O)N5CCOC(C)(C)C5)CC4)cc3n2C)cc1 [Example 450, N-((1r,4r)-4-(2,2-dimethylmorpholine-4-carbonyl)cyclohexyl)-2-(4-(2-methoxyethoxy)phenyl)-1-methyl-1H-indole-6-sulfonamide]",130 nM
4,"COCCOc1ccc(-c2cc3ccc(S(=O)(=O)N[C@H]4CC[C@H](C(=O)N5CCC[C@@H]5C(C)(C)O)CC4)cc3n2C)cc1 [Example 451, N-((1R,4r)-4-((R)-2-(2-hydroxypropan-2-yl)pyrrolidine-1-carbonyl)cyclohexyl)-2-(4-(2-methoxyethoxy)phenyl)-1-methyl-1H-indole-6-sulfonamide]",80 nM
5,"COCCOc1ccc(-c2cc3ccc(S(=O)(=O)N[C@H]4CC[C@H](C(=O)N[C@H](C)c5ccc(F)cc5)CC4)cc3n2C)cc1 [Example 452, (1r,4R)-N-((R)-1-(4-fluorophenyl)ethyl)-4-(2-(4-(2-methoxyethoxy)phenyl)-1-methyl-1H-indole-6-sulfonamido)cyclohexanecarboxamide]",10 nM
6,"COCCOc1ccc(-c2cc3ccc(S(=O)(=O)N[C@H]4CC[C@H](C(=O)N[C@H](C)C(F)(F)F)CC4)cc3n2C)cc1 [Example 453, (1r,4R)-4-(2-(4-(2-methoxyethoxy)phenyl)-1-methyl-1H-indole-6-sulfonamido)-N-((R)-1,1,1-trifluoropropan-2-yl)cyclohexanecarboxamide]",165 nM
7,"C[C@H]1COCCN1C(=O)[C@H]1CC[C@H](NS(=O)(=O)c2ccc3cc(-c4ccccc4)[nH]c3c2)CC1 [Example 462, N-((1S,4r)-4-((S)-3-methylmorpholine-4-carbonyl)cyclohexyl)-2-phenyl-1H-indole-6-sulfonamide]",15 nM
8,"CC1(C)CN(C(=O)[C@H]2CC[C@H](NS(=O)(=O)c3ccc4cc(-c5ccccc5)[nH]c4c3)CC2)CCO1 [Example 464, N-((1r,4r)-4-(2,2-dimethylmorpholine-4-carbonyl)cyclohexyl)-2-phenyl-1H-indole-6-sulfonamide]",30 nM
9,"CC(C)(O)[C@H]1CCCN1C(=O)[C@H]1CC[C@H](NS(=O)(=O)c2ccc3cc(-c4ccccc4)[nH]c3c2)CC1 [Example 465, N-((1R,4r)-4-((R)-2-(2-hydroxypropan-2-yl)pyrrolidine-1-carbonyl)cyclohexyl)-2-phenyl-1H-indole-6-sulfonamide]",20 nM
10,"O=C1NCCCCC1NC(=O)[C@H]1CC[C@H](NS(=O)(=O)c2ccc3cc(-c4ccccc4)[nH]c3c2)CC1 (stereo partly shown) [Example 466, (1r,4r)-N-(2-oxoazepan-3-yl)-4-(2-phenyl-1H-indole-6-sulfonamido)cyclohexanecarboxamide]",10 nM
11,"CC1(C)CN(C(=O)[C@H]2CC[C@H](NS(=O)(=O)c3ccc4c(Cl)c(-c5ccccc5)[nH]c4c3)CC2)CCO1 [Example 469, 3-chloro-N-((1r,4r)-4-(2,2-dimethylmorpholine-4-carbonyl)cyclohexyl)-2-phenyl-1H-indole-6-sulfonamide]",90 nM
12,"C[C@@H]1CN(C(=O)[C@H]2CC[C@H](NS(=O)(=O)c3ccc4cc(-c5ccccc5)[nH]c4c3)CC2)C[C@H](C)O1 [Example 475, N-((1R,4r)-4-((2S,6R)-2,6-dimethylmorpholine-4-carbonyl)cyclohexyl)-2-phenyl-1H-indole-6-sulfonamide]",15 nM
13,"Cc1ccccc1-c1cc2ccc(S(=O)(=O)N[C@H]3CC[C@H](C(=O)N4CCOC[C@@H]4C4CC4)CC3)cc2[nH]1 [Example 481, N-((1S,4r)-4-((S)-3-cyclopropylmorpholine-4-carbonyl)cyclohexyl)-2-o-tolyl-1H-indole-6-sulfonamide]",20 nM

# Second part, the compound after the results:
row,IC50,Structure (SMILES)
1,< 10 nM,"COc1ccc(-c2cc3ccc(S(=O)(=O)N[C@H]4CC[C@H](C(=O)N5CCOC[C@@H]5C5CC5)CC4)cc3n2C)cc1 [Example 454, N-((1S,4r)-4-((S)-3-cyclopropylmorpholine-4-carbonyl)cyclohexyl)-2-(4-methoxyphenyl)-1-methyl-1H-indole-6-sulfonamide]"
2,< 10 nM,"COCc1ccc(-c2cc3ccc(S(=O)(=O)N[C@H]4CC[C@H](C(=O)N5CCOC[C@@H]5C5CC5)CC4)cc3[nH]2)cc1 [Example 455, N-((1S,4r)-4-((S)-3-cyclopropylmorpholine-4-carbonyl)cyclohexyl)-2-(4-(methoxymethyl)phenyl)-1H-indole-6-sulfonamide]"
3,< 10 nM,"COCc1ccc(-c2cc3ccc(S(=O)(=O)N[C@H]4CC[C@H](C(=O)N5CCOC[C@@H]5C5CC5)CC4)cc3n2C)cc1 [Example 456, N-((1S,4r)-4-((S)-3-cyclopropylmorpholine-4-carbonyl)cyclohexyl)-2-(4-(methoxymethyl)phenyl)-1-methyl-1H-indole-6-sulfonamide]"
4,< 10 nM,"COCCc1ccc(-c2cc3ccc(S(=O)(=O)N[C@H]4CC[C@H](C(=O)N5CCOC[C@@H]5C5CC5)CC4)cc3n2C)cc1 [Example 457, N-((1S,4r)-4-((S)-3-cyclopropylmorpholine-4-carbonyl)cyclohexyl)-2-(4-(2-methoxyethyl)phenyl)-1-methyl-1H-indole-6-sulfonamide]"
5,< 10 nM,"COCCc1ccc(-c2cc3ccc(S(=O)(=O)N[C@H]4CC[C@H](C(=O)N5CCOC[C@@H]5C(C)C)CC4)cc3[nH]2)cc1 [Example 460, N-((1S,4r)-4-((S)-3-isopropylmorpholine-4-carbonyl)cyclohexyl)-2-(4-(2-methoxyethyl)phenyl)-1H-indole-6-sulfonamide]"
6,< 10 nM,"COCCc1ccc(-c2[nH]c3cc(S(=O)(=O)N[C@H]4CC[C@H](C(=O)N5CCOC[C@@H]5C(C)C)CC4)ccc3c2Cl)cc1 [Example 461, 3-chloro-N-((1S,4r)-4-((S)-3-isopropylmorpholine-4-carbonyl)cyclohexyl)-2-(4-(2-methoxyethyl)phenyl)-1H-indole-6-sulfonamide]"
7,< 10 nM,"CC(C)[C@H]1COCCN1C(=O)[C@H]1CC[C@H](NS(=O)(=O)c2ccc3cc(-c4ccccc4)[nH]c3c2)CC1 [Example 463, N-((1S,4r)-4-((S)-3-isopropylmorpholine-4-carbonyl)cyclohexyl)-2-phenyl-1H-indole-6-sulfonamide]"
8,< 10 nM,"C[C@H]1COCCN1C(=O)[C@H]1CC[C@H](NS(=O)(=O)c2ccc3c(Cl)c(-c4ccccc4)[nH]c3c2)CC1 [Example 467, 3-chloro-N-((1S,4r)-4-((S)-3-methylmorpholine-4-carbonyl)cyclohexyl)-2-phenyl-1H-indole-6-sulfonamide]"
9,< 10 nM,"CC(C)[C@H]1COCCN1C(=O)[C@H]1CC[C@H](NS(=O)(=O)c2ccc3c(Cl)c(-c4ccccc4)[nH]c3c2)CC1 [Example 468, 3-chloro-N-((1S,4r)-4-((S)-3-isopropylmorpholine-4-carbonyl)cyclohexyl)-2-phenyl-1H-indole-6-sulfonamide]"
10,< 10 nM,"COCCc1ccc(-c2cc3ccc(S(=O)(=O)N[C@H]4CC[C@H](C(=O)N5CCOC[C@@H]5C5CC5)CC4)cc3[nH]2)cc1 [Example 470, N-((1S,4r)-4-((S)-3-cyclopropylmorpholine-4-carbonyl)cyclohexyl)-2-(4-(2-methoxyethyl)phenyl)-1H-indole-6-sulfonamide]"
11,< 10 nM,"COCCc1ccc(-c2[nH]c3cc(S(=O)(=O)N[C@H]4CC[C@H](C(=O)N5CCOC[C@@H]5C5CC5)CC4)ccc3c2Cl)cc1 [Example 471, 3-chloro-N-((1S,4r)-4-((S)-3-cyclopropylmorpholine-4-carbonyl)cyclohexyl)-2-(4-(2-methoxyethyl)phenyl)-1H-indole-6-sulfonamide]"
12,< 10 nM,"O=C([C@H]1CC[C@H](NS(=O)(=O)c2ccc3cc(-c4ccccc4)[nH]c3c2)CC1)N1CCOC[C@@H]1C1CC1 [Example 472, N-((1S,4r)-4-((S)-3-cyclopropylmorpholine-4-carbonyl)cyclohexyl)-2-phenyl-1H-indole-6-sulfonamide]"
13,< 10 nM,"Cn1c(-c2ccc(CCC(=O)O)cc2)cc2ccc(S(=O)(=O)N[C@H]3CC[C@H](C(=O)N4CCOC[C@@H]4C4CC4)CC3)cc21 [Example 476, 3-(4-(6-(N-((1S,4r)-4-((S)-3-cyclopropylmorpholine-4-carbonyl)cyclohexyl)sulfamoyl)-1-methyl-1H-indol-2-yl)phenyl)propanoic acid]"
14,< 10 nM,"CC(C)(CO)[C@@H](NC(=O)[C@H]1CC[C@H](NS(=O)(=O)c2ccc3c(Cl)c(-c4ccccc4)[nH]c3c2)CC1)c1ccccc1 [Example 478, (1r,4S)-4-(3-chloro-2-phenyl-1H-indole-6-sulfonamido)-N-((S)-3-hydroxy-2,2-dimethyl-1-phenylpropyl)cyclohexanecarboxamide]"
15,< 10 nM,"COCc1ccc(-c2[nH]c3cc(S(=O)(=O)N[C@H]4CC[C@H](C(=O)N5CCOC[C@@H]5C5CC5)CC4)ccc3c2Cl)cc1 [Example 480, 3-chloro-N-((1S,4r)-4-((S)-3-cyclopropylmorpholine-4-carbonyl)cyclohexyl)-2-(4-(methoxymethyl)phenyl)-1H-indole-6-sulfonamide]"
